biological target: T1, active p38 alpha enzyme (Upstate Biotechnology) (Homo sapiens, UniProt Q16539); assay: p38α biochemical assay (ATP turnover, luminescent detection, Cambrex PKlight); settings: p38α biochemical assay, Table 1 Biological Activity
T1 construct: purchased Upstate Biotechnology
Description: The p38α biochemical assay employed is based on measurement of total ATP turnover following enzyme incubation with substrate in the presence of ATP with the use of a luminescent detection reagent (Cambrex PKlight). The assays were performed in 1536-well white opaque plates.
The final volume was 7.5005 μL as prepared prepared from the addition of 5 ul of kinase reaction (p38 alpah+MapkapK2+ATP) with 0.0005 μL compound dissolved in DMSO, and 2.5 ul of the detection reagent. Assay buffer contains the following reagents to give final concentration in the assay: 200 mM Tris, 100 mM MgCl2, 1.5 mM EGTA, 4 mM CaCl2, 20 mM MOPS, 1 mM EDTA, 1% glycerol, 0.1% B-Mecaptoethanol, and 1 mg/ml BSA. Test compounds are pinned using proprietary pintool technology (Kalypsys, Inc) and delivered as […] amounts into the 5 ul mixture of active p38 alpha enzyme (Upstate Biotechnology) and MapkapK2 (Upstate Biotechnology) whole protein as a substrate for phosphorylation in the presence of 1.4 uM final concentration ATP. Reactions are incubated at 30C for 2 hours and detection reagent is added in 2.5 ul/well amounts. Assay is read using a Perkin Elmer Viewlux.

T1 sequence (Q16539 whole entry): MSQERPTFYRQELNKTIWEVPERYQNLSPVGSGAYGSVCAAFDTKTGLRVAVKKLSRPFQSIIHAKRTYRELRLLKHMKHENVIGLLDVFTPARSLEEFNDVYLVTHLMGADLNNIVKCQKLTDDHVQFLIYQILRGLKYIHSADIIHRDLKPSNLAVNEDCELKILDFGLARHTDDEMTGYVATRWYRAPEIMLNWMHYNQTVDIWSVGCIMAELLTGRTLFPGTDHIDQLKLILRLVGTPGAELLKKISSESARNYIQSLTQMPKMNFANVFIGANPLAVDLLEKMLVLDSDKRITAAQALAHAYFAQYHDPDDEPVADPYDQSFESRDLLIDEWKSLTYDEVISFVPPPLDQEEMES

Q: For Cc1ccc(C(=O)NCc2onc(-c3ccc(F)cc3)c2-c2nc(C(=O)NC(C)C)cs2)cc1C [Example 614], which IC50 is on record?
A: > 1000 nM

Q: With CC(C)NC(=O)c1csc(-c2c(-c3ccc(F)cc3)noc2CNC(=O)c2ccc(Cl)c([N+](=O)[O-])c2)n1 [Example 749] as the compound, how does the IC50 read?
A: > 1000 nM

Q: Which IC50 does the source give for Cc1nc(Br)sc1C(=O)N1CCN(Cc2nc(-c3ccc(F)cc3)c(-c3nc(C(=O)NC(C)C)cs3)o2)CC1 [Example 539] here?
A: > 1000 nM

Q: Which IC50 does the source give for Cc1cc(C(=O)N2CCN(Cc3nc(-c4ccc(F)cc4)c(-c4nc(C(=O)NC(C)C)cs4)o3)CC2)cc(Cl)n1 [Example 429] here?
A: > 1000 nM

Q: Which IC50 does the source give for Cc1cccc(CCC(=O)NCc2onc(-c3ccc(F)cc3)c2-c2nc(C(=O)NC(C)C)cs2)c1 [Example 648] here?
A: > 1000 nM

Q: CC(=O)Oc1ccc(C(=O)NCc2onc(-c3ccc(F)cc3)c2-c2nc(C(=O)NC(C)C)cs2)cc1 [Example 688] was tested. Which IC50 did it give?
A: > 1000 nM

Q: Which IC50 does the source give for CCOc1ccccc1C(=O)NCc1onc(-c2ccc(F)cc2)c1-c1nc(C(=O)NC(C)C)cs1 [Example 654] here?
A: > 1000 nM

Q: For CC(C)NC(=O)c1csc(-c2oc(CN3CCN(C(=O)c4cccc(Cl)c4Cl)CC3)nc2-c2ccc(F)cc2)n1 [Example 488], which IC50 is on record?
A: > 1000 nM

Q: How did the IC50 turn out when CC(=O)NCC(=O)NCc1nc(-c2ccc(F)cc2)c(-c2nc(C(=O)NC(C)C)cs2)o1 [Example 110] was run?
A: ≤ 1000 nM

Q: Which IC50 does the source give for Cc1ccc([N+](=O)[O-])c(C(=O)NCc2onc(-c3ccc(F)cc3)c2-c2nc(C(=O)NC(C)C)cs2)c1 [Example 697] here?
A: ≤ 1000 nM

Q: Which IC50 does the source give for CC(C)NC(=O)c1csc(-c2oc(CN3CCN(C(=O)C4CCc5ccccc54)CC3)nc2-c2ccc(F)cc2)n1 (stereo not drawn) [Example 401] here?
A: ≤ 1000 nM

Q: Which IC50 does the source give for CC(C)NC(=O)c1csc(-c2oc(CN3CCN(C(=O)c4cccnc4Cl)CC3)nc2-c2ccc(F)cc2)n1 [Example 390] here?
A: > 1000 nM

Q: For CCNC(=O)c1csc(-c2c(-c3ccc(F)cc3)n[nH]c2C)n1 [Example 72, 2-|3-(4-Fluoro-phenyl)-5-methyl-1H-pyrazol-4-yl|-thiazole-4-carboxylic acid ethylamide], which IC50 is on record?
A: ≤ 1000 nM

Q: Which IC50 does the source give for CC(CC(=O)NCc1onc(-c2ccc(F)cc2)c1-c1nc(C(=O)NC(C)C)cs1)CC(C)(C)C (stereo not drawn) [Example 637] here?
A: > 1000 nM

Q: For CC(C)NC(=O)c1csc(-c2c(-c3ccc(F)cc3)noc2CNC(=O)C=O)n1 [Example 574], which IC50 is on record?
A: > 1000 nM

Q: For CC(C)NC(=O)c1csc(-c2oc(CN3CCN(C(=O)C(C)NC(=O)OC(C)(C)C)CC3)nc2-c2ccc(F)cc2)n1 (stereo not drawn) [Example 484], which IC50 is on record?
A: > 1000 nM

Q: How did the IC50 turn out when COc1ccc(C(=O)NCc2onc(-c3ccc(F)cc3)c2-c2nc(C(=O)NC(C)C)cs2)c(OC)c1 [Example 700] was run?
A: > 1000 nM

Q: How did the IC50 turn out when CC(C)NC(=O)c1csc(-c2c(-c3ccc(F)cc3)noc2CNC(=O)c2cc(Cl)ccn2)n1 [Example 630] was run?
A: > 1000 nM

Q: How did the IC50 turn out when COc1ccc(Br)c(C(=O)N2CCN(Cc3nc(-c4ccc(F)cc4)c(-c4nc(C(=O)NC(C)C)cs4)o3)CC2)c1 [Example 553] was run?
A: > 1000 nM

Q: CC(=O)Nc1cccc(C(=O)NCc2nc(-c3ccc(F)cc3)c(-c3nc(C(=O)NC(C)C)cs3)o2)c1 [Example 211] was tested. Which IC50 did it give?
A: > 1000 nM

Q: CC(=O)c1ccc(C(=O)N2CCN(Cc3nc(-c4ccc(F)cc4)c(-c4nc(C(=O)NC(C)C)cs4)o3)CC2)cc1 [Example 404] was tested. Which IC50 did it give?
A: > 1000 nM

same assay, conditions: p38α kinase; Table 1 Biological Activity

Q: How did the IC50 turn out when O=C(NCc1ccco1)c1csc(-c2c(-c3ccc(F)cc3)n[nH]c2C2CCNCC2)n1 [Example 2054] was run?
A: > 1000 nM

Q: Which IC50 does the source give for O=C(NCCc1ccccc1F)c1csc(-c2c(-c3ccc(F)cc3)n[nH]c2C2CCNCC2)n1 [Example 2105] here?
A: > 1000 nM

Q: With CCC(C)C(NC(=O)OC(C)(C)C)C(=O)NCc1onc(-c2ccc(F)cc2)c1-c1nc(C(=O)NC(C)C)cs1 (stereo not drawn) [Example 803] as the compound, how does the IC50 read?
A: > 1000 nM

Q: With CC(C)NC(=O)c1csc(-c2oc(CN3CCC(Cc4ccccc4)CC3)nc2-c2ccc(F)cc2)n1 [Example 1248] as the compound, how does the IC50 read?
A: > 1000 nM

Q: Which IC50 does the source give for Cc1nc(-c2ccc(F)cc2)c(-c2nc(C(=O)NCc3cccnc3)cs2)s1 [Example 1740] here?
A: ≤ 1000 nM

Q: For Cc1ccc(N2CCN(Cc3onc(-c4ccc(F)cc4)c3-c3nc(C(=O)NC(C)C)cs3)CC2)cc1C [Example 1592], which IC50 is on record?
A: > 1000 nM

Q: Which IC50 does the source give for CC(C)NC(=O)c1csc(-c2c(-c3ccc(F)cc3)noc2CNCCCO)n1 [Example 1395] here?
A: > 1000 nM

Q: How did the IC50 turn out when Cc1nc(-c2ccc(F)cc2)c(-c2nc(C(=O)Nc3ccccc3C(C)C)cs2)s1 [Example 1982] was run?
A: > 1000 nM

Q: CC(C)NC(=O)c1csc(-c2c(-c3ccc(F)cc3)n[nH]c2C2CCN(C(=O)CCc3ccccc3Br)CC2)n1 [Example 1023] was tested. Which IC50 did it give?
A: > 1000 nM

Q: Cc1ccc(S(=O)(=O)NCCNCc2onc(-c3ccc(F)cc3)c2-c2nc(C(=O)NC(C)C)cs2)cc1 [Example 1507] was tested. Which IC50 did it give?
A: > 1000 nM

Q: Which IC50 does the source give for CC(C)NC(=O)c1csc(-c2c(-c3ccc(F)cc3)noc2CNC(=O)C(C)c2ccc(-c3ccccc3)c(F)c2)n1 (stereo not drawn) [Example 799] here?
A: > 1000 nM

Q: For CC(C)NC(=O)c1csc(-c2c(-c3ccc(F)cc3)noc2CNCc2ccc(Cl)cc2Cl)n1 [Example 1496], which IC50 is on record?
A: > 1000 nM

Q: Which IC50 does the source give for Cc1cnc(CNCc2onc(-c3ccc(F)cc3)c2-c2nc(C(=O)NC(C)C)cs2)cn1 [Example 1433] here?
A: > 1000 nM

Q: Which IC50 does the source give for Cc1nc(-c2ccc(F)cc2)c(-c2nc(C(=O)NC(C)CCCC(C)C)cs2)s1 (stereo not drawn) [Example 1764] here?
A: > 1000 nM

Q: With CC(C)NC(=O)c1csc(-c2c(-c3ccc(F)cc3)noc2CNCc2cccc(F)c2)n1 [Example 1434] as the compound, how does the IC50 read?
A: > 1000 nM

Q: Which IC50 does the source give for Cc1nc(-c2ccc(F)cc2)c(-c2nc(C(=O)NCCN)cs2)s1 [Example 1711] here?
A: > 1000 nM

Q: For Cc1nc(-c2ccc(F)cc2)c(-c2nc(C(=O)N3CCN(Cc4ccccc4)CC3)cs2)s1 [Example 1900], which IC50 is on record?
A: > 1000 nM

Q: Which IC50 does the source give for CC(C)NC(=O)c1csc(-c2c(-c3ccc(F)cc3)n[nH]c2C2CCN(C(=O)c3ccc(F)c(F)c3)CC2)n1 [Example 875] here?
A: > 1000 nM

Q: Which IC50 does the source give for CC(C)NC(=O)c1csc(-c2c(-c3ccc(F)cc3)n[nH]c2C2CCN(C(=O)c3csc4ccccc34)CC2)n1 [Example 920] here?
A: > 1000 nM

Q: How did the IC50 turn out when CCN(C(=O)c1csc(-c2sc(C)nc2-c2ccc(F)cc2)n1)C1CCCCC1 [Example 1868] was run?
A: > 1000 nM

Q: Cc1nc(-c2ccc(F)cc2)c(-c2nc(C(=O)N(C)CC(O)c3ccccc3)cs2)s1 (stereo not drawn) [Example 1885] was tested. Which IC50 did it give?
A: > 1000 nM

Q: For CC(C)NC(=O)c1csc(-c2c(-c3ccc(F)cc3)n[nH]c2C2CCN(C(=O)c3ccncc3)CC2)n1 [Example 2178, 2-{3-(4-Fluoro-phenyl)-5-|1-(pyridine-4-carbonyl)-piperidin-4-yl|-1H-pyrazol-4-yl}-thiazole-4-carboxylic acid isopropylamide], which IC50 is on record?
A: ≤ 1000 nM

Q: Which IC50 does the source give for CCCNC(=O)c1csc(-c2c(-c3ccc(F)cc3)n[nH]c2C2CCNCC2)n1 [Example 2034] here?
A: > 1000 nM

Q: Which IC50 does the source give for CC(C)NC(=O)c1csc(-c2c(-c3ccc(F)cc3)n[nH]c2C2CCN(C(=O)COc3ccccc3C=O)CC2)n1 [Example 926] here?
A: > 1000 nM

Q: CC(C)NC(=O)c1csc(-c2c(-c3ccc(F)cc3)n[nH]c2C2CCN(C(=O)C(C)c3cccc(C(=O)c4ccccc4)c3)CC2)n1 (stereo not drawn) [Example 1044] was tested. Which IC50 did it give?
A: > 1000 nM

Q: For CC(C)NC(=O)c1csc(-c2oc(CN3CCN(c4ccc(Cl)cc4)CC3)nc2-c2ccc(F)cc2)n1 [Example 1274], which IC50 is on record?
A: > 1000 nM

Q: Which IC50 does the source give for CC(C)NC(=O)c1csc(-c2c(-c3ccc(F)cc3)noc2CNc2ccc(C(F)(F)F)cc2C(F)(F)F)n1 [Example 1699] here?
A: > 1000 nM

Q: Which IC50 does the source give for CC(C)NC(=O)c1csc(-c2c(-c3ccc(F)cc3)n[nH]c2C2CCN(C(=O)CC3Cc4ccccc4C3)CC2)n1 [Example 917] here?
A: > 1000 nM

Q: Which IC50 does the source give for CC(C)NC(=O)c1csc(-c2c(-c3ccc(F)cc3)n[nH]c2C2CCN(C(=O)c3cc(O)c(O)c(O)c3)CC2)n1 [Example 904] here?
A: ≤ 1000 nM

Q: CC(=O)N1CCC(n2cnc(-c3ccc(F)cc3)c2-c2nc(C(=O)NC(C)C)cs2)CC1 [Example 2194, 2-|3-(1-Acetyl-piperidin-4-yl)-5-(4-fluoro-phenyl)-3H-imidazol-4-yl|-thiazole-4-carboxylic acid isopropylamide] was tested. Which IC50 did it give?
A: ≤ 1000 nM

Q: With CC(C)NC(=O)c1csc(-c2c(-c3ccc(F)cc3)noc2CN(C)Cc2ccccc2)n1 [Example 1542] as the compound, how does the IC50 read?
A: > 1000 nM

Q: CC(C)NC(=O)c1csc(-c2c(-c3ccc(F)cc3)noc2CNC(C)C(C)C)n1 (stereo not drawn) [Example 1400] was tested. Which IC50 did it give?
A: > 1000 nM

Q: Which IC50 does the source give for O=C(NCCC(c1ccccc1)c1ccccc1)c1csc(-c2c(-c3ccc(F)cc3)n[nH]c2C2CCNCC2)n1 [Example 2156] here?
A: > 1000 nM

Q: COc1ccc(N2CCN(C(=O)c3csc(-c4sc(C)nc4-c4ccc(F)cc4)n3)CC2)cc1OC [Example 1953] was tested. Which IC50 did it give?
A: > 1000 nM

Q: With CCOc1cccc(NC(=O)c2csc(-c3sc(C)nc3-c3ccc(F)cc3)n2)c1 [Example 1989] as the compound, how does the IC50 read?
A: > 1000 nM

Q: For CC(C)NC(=O)c1csc(-c2c(-c3ccc(F)cc3)noc2CNCc2ccc(Cl)c(Cl)c2)n1 [Example 1495], which IC50 is on record?
A: > 1000 nM

Q: CCN(CC)CCNCc1nc(-c2ccc(F)cc2)c(-c2nc(C(=O)NC(C)C)cs2)o1 [Example 1095] was tested. Which IC50 did it give?
A: > 1000 nM

Q: For CCOc1ccccc1CNC(=O)c1csc(-c2sc(C)nc2-c2ccc(F)cc2)n1 [Example 1801], which IC50 is on record?
A: ≤ 1000 nM

Q: For CC(C)NC(=O)c1csc(-c2c(-c3ccc(F)cc3)n[nH]c2C2CCN(C(=O)c3cc(Br)ccc3Cl)CC2)n1 [Example 1034], which IC50 is on record?
A: > 1000 nM

Q: Which IC50 does the source give for CC(C)NC(=O)c1csc(-c2c(-c3ccc(F)cc3)noc2CN2CCCN(Cc3ccccc3)CC2)n1 [Example 1576] here?
A: > 1000 nM

Q: Cc1nc(-c2ccc(F)cc2)c(-c2nc(C(=O)N[C@@H](C)c3ccccc3)cs2)s1 [Example 1752] was tested. Which IC50 did it give?
A: ≤ 1000 nM

Q: Which IC50 does the source give for CCC(CO)NCc1onc(-c2ccc(F)cc2)c1-c1nc(C(=O)NC(C)C)cs1 (stereo not drawn) [Example 1405] here?
A: > 1000 nM

— patent publication US20060252807A1, “Novel ortho-terphenyl inhibitors of p38 kinase and methods of treating inflammatory disorders” (Kalypsys, Inc., priority 2005, published 2006)
